Assay results reported in patent US20250127790A1, “COMBINATION THERAPY USING VPS34 INHIBITORS” (Deciphera Pharmaceuticals, LLC, priority 2021, published 2025).

Legend:
[1] = tested on: THP-1 dual reporter cells; assay: THP-1 dual reporter assay (ISRE and NF-κB promoter activity); type: cell-based, human; settings: 5 μg/mL ADU-S100, 2 μM Compound 1 or 2, overnight
Protocol: THP1-Dual™ Cells lines were purchased from InvivoGen (WT (thpd-nfis) and STING-KO (thpd-kostg)) and cultured as recommended by manufacturer: in RPMI media (Gibco 22400-071) supplemented with 10% heat-inactivated Fetal Bovine Serum (FBS) (Gibco A38400-02) and 1× Pen-Strep-Glutamine (Gibco 10378-016). Cells were treated with selective antibiotic every other passage using 100 μg/ml Normocin™ (InvivoGen ant-nr-1), 10 μg/ml of blasticidin (InvivoGen ant-bl-05) and 100 μg/ml of Zeocin™ (InvivoGen ant-zn-05). THP1-Dual™ Cells (wild-type or STING-KO) were seeded at 1.5×10^5 cells/well in 96-well plates. Cells were treated with DMSO, 5 μg/mL ADU-S100, 2 μM Compound 1 or 2 or the combinations overnight. The next day, 10 μL of the media from the treated cells were mixed with 50 μL of QUANTI-Luc™ Gold (Invivogen rep-qlcg2) in a white 96-well plate (Thermo Scientific 9502887) to measure the interferon-sensitive response element (ISRE) promoter activity through Luciferase signal using a plate reader. For measuring NF-κB promoter activity, 10 μL of the media from the treated cells were mixed with 90 μL of QUANTI-Blue™ (Invivogen rep-qbs3) in white-96-well plates (Corning-Costar 3610), then incubated at 37° C. for one hour. The signal was then measured using a plate reader with detection at 640 nm wavelength.

A-498 cells = assay: Western blot, STAT1 phosphorylation in A-498 cells; type: cell-based, human
Protocol: A-498 cells were seeded at 1.5×10^5 cells/well in 6-well plates and cultured overnight. Cells were treated with 10 μg/mL mouse monoclonal antibody to human interferon α/β receptor chain 2 (α-IFNAR2) (clone: MMHAR-2, #21385-1, PBL Assay Science) or 10 μg/mL mouse IgG2a isotype control antibody (clone: eBM2a, #16-4724-81, Thermo Fisher Scientific). After 1 h, DMSO or 2 μM Compound 1 was added and cells were incubated for another 24 h. […] A-498 cells were washed in PBS and lysed in RIPA buffer (50 mM Tris HCl pH=7.4, 150 mM NaCl, 1% Triton X-100, 0.5% Na-deoxycholate, 0.1% SDS) containing protease inhibitor cocktail (#11836170001, Roche), and phosphatase inhibitor (#11836170001, Roche) for 10 min at 4° C. After centrifugation at 15000 rpm for 10 min at 4° C., the supernatant was obtained, and protein concentration was quantified using BCA assay (#23225, Thermo Fisher). Equal amounts were mixed with 0.1 M DTT and LDS Sample Buffer (#84788, Thermo Fisher), heated for 5 min at 90° C. before loading onto 4-12% Bis-Tris gels. Proteins were transferred to nitrocellulose membranes. Membranes were blocked in 5% non-fat dry milk in TBS with 0.05% Tween (TBS-T) for 1 h at RT, washed in TBS-T, and probed with primary antibodies shaking overnight at 4° C. After washing in TBS-T, membranes were incubated with IRDye 800CW goat anti-rabbit or IRDye 680RD donkey anti-mouse IgG (H+L) (#926-32211 and #926-68072, respectively, LI-COR, 1:10,000 dilution) secondary antibody in Intercept blocking buffer (#927-60001, LI-COR) for 1 h at RT. After washing in TBS-T, membranes were imaged using the Odyssey CLx (LI-COR). Band intensities were quantified using Image Studio Lite software version 5.2.5 (LI-COR).

B16-F10 tumors = assay: In vivo study of B16-F10 tumors; design: species or system C57BI/6 mice
Protocol: B16-F10 tumor-bearing C57BI/6 mice were treated with vehicle or 20 mg/kg Compound 1 p.o. (daily from day 7-16) in combination with PBS or 10 μg ADU-S100 i.t. (on days 9, 11, 13, and 15).

Structure (SMILES)	ISRE activity (QUANTI-Luc) [1]	NFκB activity (QUANTI-Blue) [1]	phosphorylation of STAT1 (A-498 cells; 2 μM Compound 1, 24 h)	total levels of STAT1 (A-498 cells; 2 μM Compound 1, 24 h)	phosphorylation of STAT1 with addition of α-IFNAR2 (A-498 cells; 10 μg/mL α-IFNAR2 antibody 1 h before 2 μM Compound 1, 24 h)	sensitization of B16-F10 tumors to STING agonist treatment (tumor growth, survival) (B16-F10 tumors; C57BI/6 mice, 20 mg/kg Compound 1 p.o. daily day 7-16 with 10 μg ADU-S100 i.t. on days 9, 11, 13, 15)	mice survival (B16-F10 tumors; Renca and B16-F10 tumor-bearing mice, Compound 1 with STING agonist treatment)
Nc1ncnc2c1ncn2[C@@H]1O[C@@H]2COP(=O)([S-])O[C@@H]3[C@H](O)[C@@H](COP([O-])(=S)O[C@H]2[C@H]1O)O[C@H]3n1cnc2c(N)ncnc21.[Na+].[Na+] (stereo partly shown) [ADU-S100, reference compound]	stimulates	stimulates					
C[C@@H]1COCCN1c1cc(N2CCCC[C@@H]2C(F)(F)F)[nH]c(=O)c1 [Compound 1, 4-((R)-3-methylmorpholino)-6-((R)-2-(trifluoromethyl)piperidin-1-yl)pyridin-2(1H)-one]			increased	did not alter	inhibited	sensitized	significantly improved
